# Key:
# Assay type in all cases: biochemical
# Rat sEH = molecular target: T1, Rat sEH (Rattus norvegicus, UniProt P80299); assay: sEH inhibition, fluorescent assay
# T1 sequence (P80299 1-554): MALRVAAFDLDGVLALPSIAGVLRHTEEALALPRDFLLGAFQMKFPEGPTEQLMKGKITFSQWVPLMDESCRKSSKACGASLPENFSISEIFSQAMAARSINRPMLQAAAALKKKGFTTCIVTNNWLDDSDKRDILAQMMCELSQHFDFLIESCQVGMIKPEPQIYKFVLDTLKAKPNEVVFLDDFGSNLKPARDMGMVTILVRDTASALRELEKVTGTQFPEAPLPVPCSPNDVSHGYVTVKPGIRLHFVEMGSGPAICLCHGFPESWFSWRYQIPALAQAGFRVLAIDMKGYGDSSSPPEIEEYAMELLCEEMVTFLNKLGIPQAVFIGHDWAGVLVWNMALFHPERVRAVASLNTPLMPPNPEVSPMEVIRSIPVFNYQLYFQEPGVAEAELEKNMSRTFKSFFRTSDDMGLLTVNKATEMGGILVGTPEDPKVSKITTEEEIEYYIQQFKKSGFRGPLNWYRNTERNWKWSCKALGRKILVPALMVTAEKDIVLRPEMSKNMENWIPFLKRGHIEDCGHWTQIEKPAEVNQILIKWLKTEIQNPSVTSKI
# Pig sEH = molecular target: T2, Pig sEH (Sus scrofa, UniProt Q6Q2C2); assay: sEH inhibition, radioactive assay and liver cytosolic preparation
# T2 construct: from tissue
# T2 sequence (Q6Q2C2 1-555): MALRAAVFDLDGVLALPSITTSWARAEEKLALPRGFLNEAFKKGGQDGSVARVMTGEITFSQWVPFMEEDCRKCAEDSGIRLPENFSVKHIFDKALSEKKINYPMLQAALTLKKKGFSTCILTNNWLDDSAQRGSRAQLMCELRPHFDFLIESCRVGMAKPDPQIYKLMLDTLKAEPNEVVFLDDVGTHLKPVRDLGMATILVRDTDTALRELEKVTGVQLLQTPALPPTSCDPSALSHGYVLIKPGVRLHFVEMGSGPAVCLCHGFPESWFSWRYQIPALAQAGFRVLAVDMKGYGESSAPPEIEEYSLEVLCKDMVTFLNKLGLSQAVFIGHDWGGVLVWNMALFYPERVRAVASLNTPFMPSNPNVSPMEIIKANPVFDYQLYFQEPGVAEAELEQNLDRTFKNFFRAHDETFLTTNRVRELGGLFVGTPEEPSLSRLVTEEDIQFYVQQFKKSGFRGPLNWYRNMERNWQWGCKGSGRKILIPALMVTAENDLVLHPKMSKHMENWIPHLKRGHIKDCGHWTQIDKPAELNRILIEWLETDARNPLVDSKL
# Sheep sEH = molecular target: T3, Sheep sEH (Ovis aries, UniProt A0ACI6PZ20); assay: as above
# T3 sequence (A0ACI6PZ20 1-549): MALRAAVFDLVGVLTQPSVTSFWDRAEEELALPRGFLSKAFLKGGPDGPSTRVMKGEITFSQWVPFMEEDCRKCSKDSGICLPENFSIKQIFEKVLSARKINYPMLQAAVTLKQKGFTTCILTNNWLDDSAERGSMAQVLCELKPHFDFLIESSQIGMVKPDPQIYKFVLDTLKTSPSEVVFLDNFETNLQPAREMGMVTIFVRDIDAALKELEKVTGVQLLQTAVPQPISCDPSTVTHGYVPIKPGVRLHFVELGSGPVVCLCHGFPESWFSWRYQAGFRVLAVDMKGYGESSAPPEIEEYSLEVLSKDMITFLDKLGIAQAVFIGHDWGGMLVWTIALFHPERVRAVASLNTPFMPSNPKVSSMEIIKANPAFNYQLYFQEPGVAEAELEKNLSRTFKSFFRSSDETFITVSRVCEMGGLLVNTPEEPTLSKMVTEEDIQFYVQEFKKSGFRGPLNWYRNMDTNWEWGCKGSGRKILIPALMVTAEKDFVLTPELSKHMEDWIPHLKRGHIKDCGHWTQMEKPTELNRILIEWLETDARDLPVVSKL
compound,measurement,setting,value
"O=C(Nc1ccc(OC(F)(F)F)cc1)N[C@H]1CC[C@H](Oc2ccc(C(=O)O)cc2)CC1 [EC1728, trans-4-{4-[3-(4-trifluoromethoxy-phenyl)-ureido]-cyclohexyloxy}-benzoic acid]",IC50,Rat sEH,16 nM
same,IC50,Pig sEH,29 nM
same,IC50,Sheep sEH,6 nM

# From US11987542B2, “Co-crystal of sorafenib derivatives and process for preparation thereof” (EicOsis, LLC, priority 2018, dated 2024)
